Format in all cases: functional
Assay [1] concerns Enterobacteriaceae. Kind of assay: Antimicrobial activity against carbapenemase producing Enterobacteriaceae by CLSI broth microdilution method. (In general: Dilution methods test growth across graded concentrations, often in twofold steps.)
Assay [2] relates to Enterobacteriaceae. Kind of assay: Antimicrobial activity against carbapenemase producing Enterobacteriaceae assessed as susceptible isolates by CLSI breakpoint assay.
Assay [3] concerns Enterobacteriaceae. Kind of assay: Antimicrobial activity against carbapenemase producing Enterobacteriaceae assessed as resistant isolates by CLSI breakpoint assay.
Assay [4] relates to Klebsiella sp. Kind of assay: Antimicrobial activity against Klebsiella sp. by CLSI broth microdilution method.
In assay [5] the test system is Klebsiella sp. Kind of assay: Antimicrobial activity against Klebsiella sp. assessed as susceptible isolates by CLSI breakpoint assay.
The test system of assay [6] is Klebsiella sp. Kind of assay: Antimicrobial activity against Klebsiella sp. assessed as resistant isolates by CLSI breakpoint assay.
In assay [7] the test system is Enterobacter sp. Kind of assay: Antimicrobial activity against carbapenemase producing Enterobacter sp. by CLSI broth microdilution method.
The subject of assay [8] is Enterobacter sp. Kind of assay: Antimicrobial activity against carbapenemase producing Enterobacter sp. assessed as susceptible isolates by CLSI breakpoint assay.
Assay [9] relates to Enterobacter sp. Kind of assay: Antimicrobial activity against carbapenemase producing Enterobacter sp. assessed as resistant isolates by CLSI breakpoint assay.
For assay [10], the system named is Enterobacteriaceae. Kind of assay: Antimicrobial activity against Enterobacteriaceae.
A further assay concerns Proteus mirabilis. Kind of assay: Antimicrobial activity against Proteus mirabilis.
Assay [11] concerns Klebsiella pneumoniae. Kind of assay: Antimicrobial activity against VIM1 carbapenemase producing Klebsiella pneumoniae […].
For assay [12], the system named is Klebsiella oxytoca. Kind of assay: Antimicrobial activity against KPC2/3 carbapenemase producing Klebsiella oxytoca […].
The subject of assay [13] is Klebsiella oxytoca. Kind of assay: Antimicrobial activity against KPC2 carbapenemase producing Klebsiella oxytoca […].
Assay [14] relates to Klebsiella oxytoca. Kind of assay: Antimicrobial activity against KPC3 carbapenemase producing Klebsiella oxytoca […].
For assay [15], the system named is Citrobacter freundii. Kind of assay: Antimicrobial activity against KPC2/3 carbapenemase producing Citrobacter freundii […].
Assay [16] deals with Citrobacter freundii. Kind of assay: Antimicrobial activity against KPC2 carbapenemase producing Citrobacter freundii […].
Assay [17] concerns Citrobacter freundii. Kind of assay: Antimicrobial activity against KPC3 carbapenemase producing Citrobacter freundii […].
Assay [18] has as its system Enterobacter cloacae. Kind of assay: Antimicrobial activity against KPC2/3 carbapenemase producing Enterobacter cloacae […].
The test system of assay [19] is Enterobacter cloacae. Kind of assay: Antimicrobial activity against KPC2 carbapenemase producing Enterobacter cloacae […].
Assay [20] relates to Enterobacter cloacae. Kind of assay: Antimicrobial activity against NMC-A carbapenemase producing Enterobacter cloacae […].
The test system of assay [21] is Enterobacter cloacae. Kind of assay: Antimicrobial activity against IMP1 carbapenemase producing Enterobacter cloacae […].
Assay [22] concerns Enterobacter cloacae. Kind of assay: Antimicrobial activity against VIM1 carbapenemase producing Enterobacter cloacae […].
In a further assay the test system is Pluralibacter gergoviae. Kind of assay: Antimicrobial activity against KPC3 carbapenemase producing Enterobacter gergoviae […].
In a further assay the test system is Enterobacter hormaechei. Kind of assay: Antimicrobial activity against KPC2 carbapenemase producing Enterobacter hormaechei […].
Assay [23] has as its system Serratia marcescens. Kind of assay: Antimicrobial activity against KPC2/3 carbapenemase producing Serratia marcescens […].
Assay [24] deals with Serratia marcescens. Kind of assay: Antimicrobial activity against SME1 carbapenemase producing Serratia marcescens […].
Another assay deals with Escherichia coli. Kind of assay: Antimicrobial activity against KPC2/3 carbapenemase producing Escherichia coli […].
Assay [25] has as its system Klebsiella pneumoniae. Kind of assay: Antimicrobial activity against KPC2/3 carbapenemase producing Klebsiella pneumoniae […].
Assay [26] deals with Klebsiella pneumoniae. Kind of assay: Antimicrobial activity against KPC2 carbapenemase producing Klebsiella pneumoniae […].

Converted amounts (≈) assume the structure as drawn.

Usually MIC50 stands for the lowest concentration that inhibits either 50% of growth or 50% of the strains tested, depending on the study. Read a low MIC50 as higher susceptibility. The term MIC90 denotes an inhibitory concentration at the 90% level, which refers to growth in some studies and to a panel of isolates in others. Lower therefore signals higher susceptibility. Usually MIC stands for the smallest concentration in the dilution series that meets the test's criterion for growth inhibition. A lower MIC goes with inhibition by little substance.

In the case of `C[C@@H](O)[C@H]1C(=O)N2C(C(=O)O)=C(S[C@@H]3CN[C@H](C(=O)Nc4cccc(C(=O)O)c4)C3)[C@H](C)[C@H]12`, the MIC50 against Enterobacteriaceae [1] is 8 µg/mL (≈ 16.8 µM); in the assay on Klebsiella sp. [4] it was above 8 µg/mL; in the assay with Enterobacter sp. [7], above 8 µg/mL. Besides, the MIC90 is 32 µg/mL (≈ 67.3 µM) with Enterobacteriaceae [1], above 32 µg/mL with Klebsiella sp. [4] and above 16 µg/mL with Enterobacter sp. [7]. Also, the Activity with Enterobacteriaceae [2] is 7.7%; with Enterobacteriaceae [3] it was 73.1%; in the assay with Klebsiella sp. [5], 5%; with Klebsiella sp. [6] it was 83.3%; in the assay on Enterobacter sp. [8], 8.3%; in the assay with Enterobacter sp. [9], 12.5%.

Turning to `NCC[C@H](O)C(=O)N[C@@H]1C[C@H](N)[C@@H](O[C@H]2O[C@H](CN)[C@@H](O)[C@H](O)[C@H]2O)[C@H](O)[C@H]1O[C@H]1O[C@H](CO)[C@@H](O)[C@H](N)[C@H]1O` [AMIKACIN], the MIC50 is 8 µg/mL (≈ 13.7 µM) against Enterobacteriaceae [1], 16 µg/mL (≈ 27.3 µM) with Klebsiella sp. [4] and 2 µg/mL (≈ 3.42 µM) against Enterobacter sp. [7]. Further, the MIC90 was 32 µg/mL (≈ 54.6 µM) against Enterobacteriaceae [1], above 32 µg/mL in the assay with Klebsiella sp. [4] and 16 µg/mL (≈ 27.3 µM) with Enterobacter sp. [7]. The Activity in the assay on Enterobacteriaceae [2] is on record as 73.3%; in the assay with Enterobacteriaceae [3], 8.3%; in the assay with Klebsiella sp. [5] it was 53.3%; with Klebsiella sp. [6] it was 13.3%; with Enterobacter sp. [8] it was 95.2%; with Enterobacter sp. [9], 4.8%.

With `C[C@@H](O)[C@H]1C(=O)N2C(C(=O)O)=C(SCCNC=N)C[C@H]12` [IMIPENEM ANHYDROUS], the MIC50 is 8 µg/mL (≈ 26.7 µM) with Enterobacteriaceae [1], 8 µg/mL (≈ 26.7 µM) against Klebsiella sp. [4] and 4 µg/mL (≈ 13.4 µM) with Enterobacter sp. [7]. In addition, the MIC90 in the assay on Enterobacteriaceae [1] was above 8 µg/mL; with Klebsiella sp. [4] it was 16 µg/mL (≈ 53.4 µM); in the assay with Enterobacter sp. [7] it was above 8 µg/mL. In addition, the Activity in the assay on Enterobacteriaceae [2] was determined as 37.5%; with Klebsiella sp. [5] it was 21.7%; in the assay on Klebsiella sp. [6], 46.7%; in the assay with Enterobacter sp. [8], 54.2%; in the assay with Enterobacter sp. [9], 17.7%.

On to `C[C@@H](O)[C@H]1C(=O)N2C(C(=O)O)=C(S[C@@H]3CN[C@H](C(=O)N(C)C)C3)[C@H](C)[C@H]12` [MEROPENEM], for which the MIC50 against Enterobacteriaceae [1] is 8 µg/mL (≈ 20.9 µM); in the assay with Klebsiella sp. [4], above 8 µg/mL; against Enterobacter sp. [7] it was 8 µg/mL (≈ 20.9 µM). The MIC90 with Enterobacteriaceae [1], against Klebsiella sp. [4] and against Enterobacter sp. [7] was above 8 µg/mL in each case. In addition, the Activity in the assay on Enterobacteriaceae [2] is on record as 32.7%; in the assay with Enterobacteriaceae [3] it was 50%; with Klebsiella sp. [5], 20%; in the assay on Klebsiella sp. [6], 61.7%; with Enterobacter sp. [8], 33.3%; with Enterobacter sp. [9] it was 41.7%. The minimal inhibitory concentration (MIC) in the assay on Enterobacteriaceae [10] is at least 2 µg/mL; with Proteus mirabilis, at least 16 µg/mL.

Regarding `CN(C)[C@@H]1C(O)=C(C(N)=O)C(=O)[C@@]2(O)C(O)=C3C(=O)c4c(O)cccc4[C@@](C)(O)[C@H]3C[C@@H]12` [TETRACYCLINE], the MIC50 in the assay on Enterobacteriaceae [1], against Klebsiella sp. [4] and in the assay on Enterobacter sp. [7] was 4 µg/mL (≈ 9 µM) in each case. Moreover, the MIC90 in the assay on Enterobacteriaceae [1], against Klebsiella sp. [4] and with Enterobacter sp. [7] was above 8 µg/mL in each case. Besides, the Activity stood at 35.6% with Enterobacteriaceae [2]; 19.2% in the assay on Enterobacteriaceae [3]; 66.7% in the assay with Klebsiella sp. [5]; 13.3% in the assay with Klebsiella sp. [6]; 70.8% in the assay on Enterobacter sp. [8]; 20.8% in the assay with Enterobacter sp. [9].

Take `CN(C)c1cc(NC(=O)CNC(C)(C)C)c(O)c2c1C[C@H]1C[C@H]3[C@H](N(C)C)C(O)=C(C(N)=O)C(=O)[C@@]3(O)C(O)=C1C2=O` [TIGECYCLINE]: the MIC with Klebsiella pneumoniae [11] came to 0.12 µg/mL (≈ 0.205 µM); in the assay on Klebsiella oxytoca [12], 0.25 µg/mL (≈ 0.427 µM); against Klebsiella oxytoca [13] it was 0.12 µg/mL (≈ 0.205 µM); in the assay on Klebsiella oxytoca [14], 0.5 µg/mL (≈ 0.854 µM); with Citrobacter freundii [15], 0.25 µg/mL (≈ 0.427 µM); in the assay with Citrobacter freundii [16], 1 µg/mL (≈ 1.71 µM). The MIC in the assay with Citrobacter freundii [17] was 0.12 µg/mL (≈ 0.205 µM); in the assay with Enterobacter cloacae [18] it was 0.12 µg/mL (≈ 0.205 µM); with Enterobacter cloacae [19], 0.5 µg/mL (≈ 0.854 µM); with Enterobacter cloacae [20], 0.12 µg/mL (≈ 0.205 µM); in the assay on Enterobacter cloacae [21], 0.25 µg/mL (≈ 0.427 µM); against Enterobacter cloacae [22], 0.25 µg/mL (≈ 0.427 µM). Further, the MIC in the assay with Pluralibacter gergoviae was 0.25 µg/mL (≈ 0.427 µM); in the assay on Enterobacter hormaechei it was 2 µg/mL (≈ 3.41 µM); against Serratia marcescens [23], 0.5 µg/mL (≈ 0.854 µM); in the assay with Serratia marcescens [24], 0.5 µg/mL (≈ 0.854 µM); in the assay with Escherichia coli, 0.12 µg/mL (≈ 0.205 µM); in the assay on Klebsiella pneumoniae [25] it was 0.25 µg/mL (≈ 0.427 µM). The same compound came in with an MIC against Klebsiella pneumoniae [26] of 1 µg/mL (≈ 1.71 µM). For the same compound, the MIC50 came out at 0.5 µg/mL (≈ 0.854 µM) in the assay on Enterobacteriaceae [1], 1 µg/mL (≈ 1.71 µM) against Klebsiella sp. [4] and 0.25 µg/mL (≈ 0.427 µM) against Enterobacter sp. [7]. For the same compound, the MIC90 with Enterobacteriaceae [1] was 1 µg/mL (≈ 1.71 µM); in the assay on Klebsiella sp. [4], 2 µg/mL (≈ 3.41 µM); in the assay with Enterobacter sp. [7], 0.5 µg/mL (≈ 0.854 µM). Also, the Activity in the assay with Enterobacteriaceae [2] amounted to 100%; in the assay with Enterobacteriaceae [3] it was 0%; with Klebsiella sp. [5], 100%; in the assay on Klebsiella sp. [6], 0%; in the assay on Enterobacter sp. [8] it was 100%; with Enterobacter sp. [9], 0%.

In the case of GENTAMICIN, the MIC50 in the assay on Enterobacteriaceae [1] was 4 µg/mL; in the assay on Klebsiella sp. [4], below 2 µg/mL; in the assay on Enterobacter sp. [7] it was 8 µg/mL. In addition, the MIC90 in the assay on Enterobacteriaceae [1], in the assay with Klebsiella sp. [4] and in the assay on Enterobacter sp. [7] was above 8 µg/mL in each case. In addition, the Activity stood at 73.3% in the assay on Enterobacteriaceae [2]; 58.3% with Klebsiella sp. [5]; 31.2% in the assay on Klebsiella sp. [6]; 42.9% with Enterobacter sp. [8]; 38.1% in the assay on Enterobacter sp. [9].

As to POLYMYXIN B, the MIC50 against Enterobacteriaceae [1], in the assay with Klebsiella sp. [4] and in the assay with Enterobacter sp. [7] was below 1 µg/mL in each case. Further, the MIC90 was 4 µg/mL in the assay on Enterobacteriaceae [1], below 1 µg/mL with Klebsiella sp. [4] and below 1 µg/mL against Enterobacter sp. [7]. Moreover, the Activity in the assay on Enterobacteriaceae [2] was 88.1%; in the assay on Enterobacteriaceae [3] it was 11.9%; with Klebsiella sp. [5], 93.3%; in the assay on Klebsiella sp. [6], 6.7%; with Enterobacter sp. [8], 95.2%; in the assay with Enterobacter sp. [9] it was 4.8%.

(Values after ChEMBL document CHEMBL1152470, “Antimicrobial activities of tigecycline and other broad-spectrum antimicrobials tested against serine carbapenemase- and metallo-beta-lactamase-producing Enterobacteriaceae: report from the SENTRY Antimicrobial Surveillance Program” (2008).)
